According to ChEMBL document CHEMBL1671854, “ramR mutations involved in efflux-mediated multidrug resistance in Salmonella enterica serovar Typhimurium” (2008):

How the values were obtained:
Format in all cases: functional, Salmonella enterica subsp. enterica serovar Typhimurium
Salmonella typhimurium [1] = assay: Antimicrobial activity against multidrug-resistant Salmonella enterica serovar Typhimurium 902SA92 harboring GyrA S83A and D87N, GyrB S464F and ParC S80I mutant genes by agar doubling dilution method
Salmonella typhimurium [2] = assay: Antimicrobial activity against multidrug-resistant Salmonella enterica serovar Typhimurium 902SA92 harboring plasmid encoded RamR gene, GyrA S83A and D87N, GyrB S464F and ParC S80I mutant genes by agar doubling dilution method
Salmonella typhimurium [3] = assay: Antimicrobial activity against ramA::kan-deficient Salmonella enterica serovar Typhimurium 902SA92 harboring GyrA S83A and D87N, GyrB S464F and ParC S80I mutant genes by agar doubling dilution method
Salmonella typhimurium [4] = assay: Antimicrobial activity against multidrug-resistant Salmonella enterica serovar Typhimurium 102SA00 harboring GyrA S83A and D87N, GyrB S464F and ParC S80I mutant genes by agar doubling dilution method
Salmonella typhimurium [5] = assay: Antimicrobial activity against multidrug-resistant Salmonella enterica serovar Typhimurium 102SA00 harboring plasmid encoded RamR gene, GyrA S83A and D87N, GyrB S464F and ParC S80I mutant genes by agar doubling dilution method
Salmonella typhimurium [6] = assay: Antimicrobial activity against ramA::kan-deficient Salmonella enterica serovar Typhimurium 102SA00 harboring GyrA S83A and D87N, GyrB S464F and ParC S80I mutant genes by agar doubling dilution method
Salmonella typhimurium [7] = assay: Antimicrobial activity against multidrug-resistant Salmonella enterica serovar Typhimurium BN10055 harboring GyrA S83Y mutant gene by agar doubling dilution method
Salmonella typhimurium [8] = assay: Antimicrobial activity against multidrug-resistant Salmonella enterica serovar Typhimurium BN10055 harboring plasmid encoded RamR gene, GyrA S83Y mutant gene by agar doubling dilution method
Salmonella typhimurium [9] = assay: Antimicrobial activity against ramA::kan-deficient Salmonella enterica serovar Typhimurium BN10055 harboring GyrA S83Y mutant gene by agar doubling dilution method
Salmonella typhimurium [10] = assay: Antimicrobial activity against multidrug-resistant Salmonella enterica serovar Typhimurium 543SA98 harboring GyrA […] mutant gene by agar doubling dilution method
Salmonella typhimurium [11] = assay: Antimicrobial activity against multidrug-resistant Salmonella enterica serovar Typhimurium 543SA98 harboring plasmid encoded RamR gene, GyrA S83Y mutant gene by agar doubling dilution method
Salmonella typhimurium [12] = assay: Antimicrobial activity against ramA::kan-deficient Salmonella enterica serovar Typhimurium 543SA98 harboring GyrA S83Y mutant gene by agar doubling dilution method
Salmonella typhimurium [13] = assay: Antimicrobial activity against multidrug-resistant Salmonella enterica serovar Typhimurium BN9945 by agar doubling dilution method
Salmonella typhimurium [14] = assay: Antimicrobial activity against multidrug-resistant Salmonella enterica serovar Typhimurium BN9945 harboring plasmid encoded RamR gene by agar doubling dilution method
Salmonella typhimurium [15] = assay: Antimicrobial activity against ramA::kan-deficient Salmonella enterica serovar Typhimurium BN9945 by agar doubling dilution method
Salmonella typhimurium [16] = assay: Antimicrobial activity against multidrug-resistant Salmonella enterica serovar Typhimurium BN9181 by agar doubling dilution method
Salmonella typhimurium [17] = assay: Antimicrobial activity against multidrug-resistant Salmonella enterica serovar Typhimurium BN9181 harboring plasmid encoded RamR gene by agar doubling dilution method
Salmonella typhimurium [18] = assay: Antimicrobial activity against ramA::kan-deficient Salmonella enterica serovar Typhimurium BN9181 by agar doubling dilution method
Salmonella typhimurium [19] = assay: Antimicrobial activity against Salmonella enterica serovar Typhimurium S/921495 by agar doubling dilution method
Salmonella typhimurium [20] = assay: Antimicrobial activity against marR::kan-deficient Salmonella enterica serovar Typhimurium S/921495 by agar doubling dilution method
Salmonella typhimurium [21] = assay: Antimicrobial activity against marR-deficient Salmonella enterica serovar Typhimurium S/921495 by agar doubling dilution method
Salmonella typhimurium [22] = assay: Antimicrobial activity against marA::kan-deficient Salmonella enterica serovar Typhimurium S/921495 by agar doubling dilution method
Salmonella typhimurium [23] = assay: Antimicrobial activity against soxR::kan-deficient Salmonella enterica serovar Typhimurium S/921495 by agar doubling dilution method
Salmonella typhimurium [24] = assay: Antimicrobial activity against soxS::kan-deficient Salmonella enterica serovar Typhimurium S/921495 by agar doubling dilution method
Salmonella typhimurium [25] = assay: Antimicrobial activity against Salmonella enterica serovar Typhimurium S/921495 harboring plasmid encoded RamR gene by agar doubling dilution method
Salmonella typhimurium [26] = assay: Antimicrobial activity against ramR-deficient Salmonella enterica serovar Typhimurium S/921495 harboring plasmid encoded RamR gene by agar doubling dilution method
Salmonella typhimurium [27] = assay: Antimicrobial activity against ramA::kan-deficient Salmonella enterica serovar Typhimurium S/921495 by agar doubling dilution method
Salmonella typhimurium [28] = assay: Antimicrobial activity against Salmonella enterica serovar Typhimurium BN18 by agar doubling dilution method
Salmonella typhimurium [29] = assay: Antimicrobial activity against Salmonella enterica serovar Typhimurium BN18 harboring plasmid encoded RamR gene by agar doubling dilution method
Salmonella typhimurium [30] = assay: Antimicrobial activity against ramA::kan-deficient Salmonella enterica serovar Typhimurium BN18 by agar doubling dilution method
Salmonella typhimurium [31] = assay: Antimicrobial activity against Salmonella enterica serovar Typhimurium BN18/21 by agar doubling dilution method
Salmonella typhimurium [32] = assay: Antimicrobial activity against Salmonella enterica serovar Typhimurium BN18/21 harboring plasmid encoded RamR gene by agar doubling dilution method
Salmonella typhimurium [33] = assay: Antimicrobial activity against ramA::kan-deficient Salmonella enterica serovar Typhimurium BN18/21 by agar doubling dilution method
Salmonella typhimurium [34] = assay: Antimicrobial activity against Salmonella enterica serovar Typhimurium BN18/41 harboring GyrA G81C,acrR mutant genes by agar doubling dilution method
Salmonella typhimurium [35] = assay: Antimicrobial activity against Salmonella enterica serovar Typhimurium BN18/41 harboring plasmid encoded RamR gene, GyrA G81C,acrR mutant genes by agar doubling dilution method
Salmonella typhimurium [36] = assay: Antimicrobial activity against ramA::kan-deficient Salmonella enterica serovar Typhimurium BN18/41 harboring plasmid encoded RamR gene, GyrA G81C,acrR mutant genes by agar doubling dilution method
Salmonella typhimurium [37] = assay: Antimicrobial activity against Salmonella enterica serovar Typhimurium BN18/71 harboring GyrA G81C, acrR mutant genes by agar doubling dilution method
Salmonella typhimurium [38] = assay: Antimicrobial activity against Salmonella enterica serovar Typhimurium BN18/71 harboring plasmid encoded RamR gene, GyrA G81C,acrR mutant genes by agar doubling dilution method
Salmonella typhimurium [39] = assay: Antimicrobial activity against ramA::kan-deficient Salmonella enterica serovar Typhimurium BN18/71 harboring plasmid encoded RamR gene, GyrA G81C,acrR mutant genes by agar doubling dilution method
Salmonella typhimurium [40] = assay: Antimicrobial activity against ramR::kan-deficient Salmonella enterica serovar Typhimurium S/921495 by agar doubling dilution method
Salmonella typhimurium [41] = assay: Antimicrobial activity against ramR-deficient Salmonella enterica serovar Typhimurium S/921495 by agar doubling dilution method

Measured: MIC

CC1CCc2cc(F)cc3c(=O)c(C(=O)O)cn1c23 (stereo unspecified) [FLUMEQUINE]
512 µg/mL: Salmonella typhimurium [2] | Salmonella typhimurium [3] | Salmonella typhimurium [5] | Salmonella typhimurium [6] | Salmonella typhimurium [37]
2050 µg/mL: Salmonella typhimurium [1] | Salmonella typhimurium [4]
8 µg/mL: Salmonella typhimurium [11] | Salmonella typhimurium [12] | Salmonella typhimurium [14] | Salmonella typhimurium [15] | Salmonella typhimurium [31]
32 µg/mL: Salmonella typhimurium [10] | Salmonella typhimurium [13]
64 µg/mL: Salmonella typhimurium [7] | Salmonella typhimurium [8] | Salmonella typhimurium [35] | Salmonella typhimurium [36]
2 µg/mL: Salmonella typhimurium [32] | Salmonella typhimurium [33] | Salmonella typhimurium [40] | Salmonella typhimurium [41]
16 µg/mL: Salmonella typhimurium [9]
256 µg/mL: Salmonella typhimurium [34] | Salmonella typhimurium [38] | Salmonella typhimurium [39]
0.5 µg/mL: all other assays above
